The source of these data is patent US5629469A, “Thiol protease inhibitor” (Sandoz Ltd., priority 1995, dated 1997).

One experiment deals with wCRW larvae. The experiment is described as follows: Artificial diet bioassay, neonate wCRW larvae. The format is in vivo. Particulars: Diabrotica virgifera, 144 h; diet supplemented with 0.01%; mortality at day 6; read-out: % wCRW mortality ± SE. As to the method:
Neonate wCRW larvae are allowed to feed on BioServe, a standard artificial diet used for southern corn rootworm. The diet is supplemented with the treatments indicated below in Table 3. Two or 3 larvae are placed in treatment wells with 9 replicate wells used per treatment. The larvae are allowed to feed on the diet and mortality is evaluated at day 6.

The test system of experiment [1] is proteolytic activity in the midgut extracts. The following applies: three species of beetles; cited from earlier work.

Broadly, the mortality is the share of the test organisms that died. As for `CC(C)C[C@H](NC(=O)[C@H]1O[C@@H]1C(=O)O)C(=O)NCCCCN=C(N)N` [E64, [N-(L-3 transcarrboxyoxiran-2-carbonyl)-L-leucyl]-amido(4-guanido)-butane], in the experiment on wCRW larvae, the mortality at 0.01 % amounted to 80 ± 8%. Besides, the “inhibition of proteolytic activity in midgut extracts” value in experiment [1] is listed as “much or most of the proteolytic activity in the midgut extracts was inhibited”.
